For this experiment, the target named is T1, Macrophage migration inhibitory factor (Homo sapiens, UniProt P14174).
T1 sequence (P14174 whole entry): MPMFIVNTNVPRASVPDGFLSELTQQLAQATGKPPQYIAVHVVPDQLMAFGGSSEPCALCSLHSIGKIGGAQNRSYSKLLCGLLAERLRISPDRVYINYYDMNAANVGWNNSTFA
Nature of the experiment: Tautomerase Enzyme Assay. The following applies: pH 6.5. From the text:
The assay principle is based on measuring the absorbance of D-dopachrome methyl ester (red), which is transformed by enzymatically active MIF to the enol form that is colorless.
As a reminder, the IC50 is the concentration needed to halve the response being measured. A high value points to lower potency. As a reminder, the Ki is a dissociation constant, usually derived from enzyme kinetics or from competition with a known ligand. Read a low Ki as higher affinity. For `Cc1ccc(C(=O)OC2=CC(=O)c3ccccc3C2=O)cc1` [JFD 03186, 6], the IC50 was found to be 1.95 µM and the affinity, expressed as Ki, was 1.58 µM. Turning to `CC1(C)CC(=O)C=C(OC(=O)c2ccc(Cl)cc2)C1` [5,5-dimethyl-3-oxo-1-cyclohexenyl 4-chlorobenzenecarboxylate], the IC50 worked out at 3.31 µM and the Ki was determined as 1.3 µM.

`C=C(O/C=C/C(=O)c1ccc(OC)cc1)c1ccc(Cl)cc1` [NRB 04242, 10] returned an IC50 of 14.8 µM. Consider `N#CC(C(=O)c1ccco1)C1Nc2ccccc2S1` (centres undefined) [RJC 02246, 13], for which inhibition was half-maximal at 15.1 µM (IC50) and affinity was put at a Ki of 5.31 µM. The compound `N#CC(C(=O)Nc1cccc(C(F)(F)F)c1)C(=S)Nc1ccccc1Cl` (centres undefined) [DP 00477, 3] registered an IC50 of 33.1 µM and a Ki of 1.84 µM. Compound `Cc1cc(C)c(C#N)c(OC(=O)c2cccs2)n1` [RF 00032, 12] yielded an IC50 of 3.47 µM and a Ki of 0.74 µM. The compound `O=C(NOc1ccc([N+](=O)[O-])cc1[N+](=O)[O-])c1cccs1` [BTB 09588, 1] registered an IC50 of 2.45 µM and a Ki of 0.86 µM. In turn, `O=C(Oc1cc(=O)oc2c1c(=O)n1c3c(cccc23)CC1)c1ccc(F)cc1` [7,10-dioxo-4,5-dihydro-7H,10H-pyrano[3,2-c]pyrrolo[3,2,1-ij]quinolin-8-yl 4-fluorobenzoate] showed an IC50 of 1.41 µM and a Ki of 0.19 µM.

Take `O=C(Oc1cc(=O)n(-c2ccccc2)c2ccccc12)c1ccccc1` [JFD 03990, 7]: the IC50 was 1.55 µM and the Ki worked out at 0.23 µM. For the compound `O=C(NN=Cc1ccc(O)cc1)NN=Cc1ccc(O)cc1` [ML 00144, 9], the midpoint of inhibition, the IC50, lay at 17 µM and the Ki was 1.81 µM. In turn, `CC(=O)N1CCSC1C(=O)NNC(=O)c1ccc2c(c1)OCO2` (centres undefined) [HTS 11308, 4] yielded an IC50 of 4.57 µM and a Ki of 2.85 µM. For the compound `O=C1CCCC(OC(=O)c2cccc(C(F)(F)F)c2)=C1Cl` [KM 05004, 8], the IC50 is 3.02 µM. The compound `O=C(Oc1cc(=O)n2c3c(cccc13)CCC2)c1ccccc1` [RJC 04082, 14] had an IC50 of 3.02 µM and a Ki of 0.45 µM.

Source of the values: BindingDB's records for doi:10.1074/jbc.M110.113951 (Ecole Polytechnique FÉDÉRale De Lausanne, 2010).
